Measurements from EP1633374B1, “COMPOSITION CONSISTING OF ALKANE DICARBOXYLIC ACIDS AND A PHARMACEUTICALLY ACTIVE INGREDIENT” (Intendis GmbH, priority 2003, dated 2004).
Entries after “also recorded” stand apart in the source; their conditions may differ.

Tested on: durch Crotonöl entzündete Maushaut
Assay: Croton oil-induced inflammation of the mouse ear (irritant contact dermatitis model), leukocyte infiltration of the skin
Type: in vivo, Maus
Settings: for Inhibition [%] der Hautinfiltration * von Granulozyten & Monozyten (Myelo-Peroxidaseaktivität) / Inhibition [%] der Hautinfiltration * von Neutrophilen Elastaseaktivität: Crotonöl challenge, mouse ear skin, topical treatment in Ethanol/Isopropylmyristat, inhibition vs Crotonöl + Vehikel (0 %), 100 % = Vehikel/Vehikel, significance given (n.s. or p<0.05); for therapeutische Effekte im Vergleich zum Vehikel: inflammation model, in Ethanol/Isopropylmyristat, Peroxidase- and Elastase-Aktivität in der Haut, result in words
Source text: Die Induktion einer entzündlichen Reaktion (irritative Kontaktdermatitis) ist ein weit verbreitetes Modell zur pharmakologischen Evaluierung des anti - inflammatorischen Potentials von topisch oder systemisch applizierten Testsubstanzen. (Trancik and Lowe (1985) Evaluation of topical nonsteroidal anti - inflammatory agents, Models in Dermatology, H. Maibach and N.J. Lowe, Basel Karger: 35 - 42) Es hat sich unter anderem bei der Testung von nicht - steroidalen Antiphlogistika sowie bei Glukokortikosteroiden bewährt und gilt als der am besten reproduzierbare in vivo Testversuch für die Evaluierung topischer anti - inflammatorischer Substanzen (Lorenzetti (1975) Animal to Clinical Correlation of Topical Anti - Inflammatory Efficacy, Animal models in dermatology. H. Maibach, Basel Karger: 212 - 224)
Die Induktion einer entzündlichen Reaktion (irritative Kontaktdermatitis) ist ein weit verbreitetes Modell zur pharmakologischen Evaluierung des anti - inflammatorischen Potentials von topisch oder systemisch applizierten Testsubstanzen (Trancik and Lowe (1985) Evaluation of topical nonsteroidal anti - inflammatory agents, Models in Dermatology, H. Maibach and N.J. Lowe. Basel, Karger: 35 - 42). Es hat sich u.a. bei der Testung von nicht - steroidalen Antiphlogistika sowie bei Glukokortikosteroiden bewährt und gilt als der am besten reproduzierbare in vivo Versuch für die Evaluierung topischer anti - inflammatorischer Substanzen (Lorenzetti (1975) Animal to Clinical correlation of Topical Anti - inflammatory Efficacy. Animal models in dermatology. H. Maibach. Basel Karger: 212 - 225).
Die Applikation des Phorbolesters Crotonöl auf Mäuseohren führt zu einer akuten, entzündlichen Reaktion mit Ödem und Einwanderung von vorwiegend polymorphkernigen Granulozyten, die binnen 24h ihr Maximum erreicht. Testsubstanzen können hierbei entweder präventiv (d.h. vor Applikation des entzündlichen Reizes) oder simultan mit Crotonöl appliziert werden. Die Crotonöl - induzierte Entzündung am Mäuseohr ist nicht nur ein Modell der irritativen und/oder allergischen Kontaktdermatitis, sondern auch anderer Hauterkrankungen, die mit einer starken Entzündung und Einwanderung von Granulozyten verbunden sind. Hierzu zählen die Psoriasis, atopische Dermatitis, Akne vulgaris und das entzündliche Stadium der Rosacea.
Erstaunlicher Weise wurde gefunden, dass eine Kombinationstherapie von Metronidazol (0.75%) und Azelainsäure (20%) in Ethanol/Isopropylmyristat im Vergleich zum Vehikel signifikant therapeutisch effektiv waren, wohingegen die beiden Einzelsubstanzen Metronidazol (0.75%) bzw. […] Die Wirksamkeit beinhaltete u.a. die Einwanderung von Leukozyten gemessen als Peroxidase-Aktivität in der Haut sowie die Einwanderung von neutrophilen Granulozyten gemessen als Elastase-Aktivität in der Haut (Tabelle 1).
Die Leukozyteninfiltration in die durch Crotonöl entzündete Maushaut wird durch die kombinierte Behandlung mit Azelainsäure und Metronidazol im Vergleich zu Vehikelbehandlung signifikant inhibiert, wohingegen die einzelnen Wirkstoffe nicht so effektiv waren.

| Structure (SMILES) | Inhibition [%] der Hautinfiltration * von Granulozyten & Monozyten (Myelo-Peroxidaseaktivität) | Inhibition [%] der Hautinfiltration * von Neutrophilen Elastaseaktivität | therapeutische Effekte im Vergleich zum Vehikel |
| --- | --- | --- | --- |
| Cc1ncc([N+](=O)[O-])n1CCO [Metronidazol (0.75%), 1-(2-hydroxyethyl)-2-methyl-5-nitroimidazol] | 9 (n.s.) * % | 18 (n.s.) * % | keine so hohen, therapeutischen Effekte; also recorded: keine so hohe, therapeutische Effekte |
| C[C@H]1C[C@@H]2[C@H]([C@@H](O)C[C@@]3(C)[C@H]2CC[C@]3(O)C(=O)CO)[C@@]2(C)C=CC(=O)C=C12 [Methylprednisolon] | 90 (p<0.05) ^* % | 95 (p<0.05) ^* % |  |
| O=C(O)CCCCCCCC(=O)O [Azelainsäure (20%), Azelainsäure] | 21 (n.s.) * % | 11 (n.s.) * % | keine so hohen, therapeutischen Effekte; also recorded: keine so hohe, therapeutische Effekte |
